{"source": "paper PMC5360416", "about": "(Journal of pharmaceutical sciences, 2014)", "key": {"[1]": {"assay": "Pharmacokinetics in adult male SD rats", "format": "in vivo, rat", "details": "6 mg/kg; for AUC(0-inf) / Cmax: male, Sprague-Dawley, rat, plasma"}, "MCT induced PAH rats": {"system": "MCT induced PAH rats", "assay": "Acute hemodynamic efficacy in MCT induced PAH rats", "format": "in vivo, rat", "details": "3 mg/kg"}, "[2]": {"details": "stated without reference, cited from earlier work"}, "[3]": {"assay": "Short-term lung toxicity, bronchoalveolar lavage", "format": "in vivo, rat", "details": "12 hrs"}, "[4]": {"details": "0.1% SDS, compared with CAR-micelles and plain drug"}}, "note": "Where a name gives a salt, the structure may show the parent alone.", "data": [{"smiles": "O=S(=O)(c1cccc2cnccc12)N1CCCNCC1", "note": "[Fasudil, Fasudil hydrochloride]", "values": [{"measurement": "time after which no plasma concentration was shown", "setting": "[1]; IT", "value": 6, "unit": "h"}, {"measurement": "time after which no plasma concentration was shown", "setting": "[1]; IV", "value": 2, "unit": "h"}, {"measurement": "AUC(0-inf)", "setting": "[1]; inhaled or intranasal", "value": "21700 ± 4080", "unit": "ng·h/mL"}, {"measurement": "Cmax", "setting": "[1]; inhaled or intranasal", "value": "1450 ± 580", "unit": "ng/mL"}, {"measurement": "AUC(0-inf)", "setting": "[1]; iv", "value": "27600 ± 3910", "unit": "ng·h/mL"}, {"measurement": "Cmax", "setting": "[1]; iv", "value": "3780 ± 230", "unit": "ng/mL"}, {"measurement": "reduction in MPAP, IT versus IV", "setting": "MCT induced PAH rats; plain fasudil IT", "value": "more pronounced reduction in MPAP than IV fasudil"}, {"measurement": "reduction in MSAP", "setting": "MCT induced PAH rats; plain fasudil IV and IT", "value": "significant reduction"}, {"measurement": "solubility in methanol", "setting": "[2]; methanol", "value": "moderately soluble"}, {"measurement": "solubility in water", "setting": "[2]; water", "value": "~200", "unit": "mg/mL"}]}, {"smiles": "CCCCCCCCCCCCOS(=O)(=O)[O-].[Na+]", "note": "[SDS, sodium dodecyl sulfate]", "values": [{"measurement": "ALP level in BAL fluid", "setting": "[3]; [4]", "value": "elevated levels"}, {"measurement": "LDH level in BAL fluid", "setting": "[3]; [4]", "value": "elevated levels"}, {"measurement": "wet lung weight compared to saline treated rats", "setting": "[3]; intratracheal, CAR-micelles equivalent to 6 mg/kg fasudil, SDS 0.1%", "value": "two-fold"}, {"measurement": "cell viability", "setting": "rat PASM cells", "value": "~16", "unit": "%"}]}]}
